According to paper PMC2364987 (Metal-Based Drugs, 1995):

Assays:
human CA I = target: T1, human CA I (Homo sapiens, UniProt P00915); assay: CA I inhibition, CO2 hydration, Maren's micromethod (E-I technique); type: biochemical; conditions: 0C, veronal buffer, calculated as for the monomer for complexes
T1 construct: purchased Sigma Chemical Co
Excerpt: (§1) Introduction Sulfonamide inhibitors of the zinc enzyme carbonic anhydrase (CA, EC 4.2.1.1) are widely used pharmacological agents in the treatment of a variety of disorders. […] 3,11 As we are also interested in exploring the coordination chemistry of sulfonamide CA inhibitors, in addition to their pharmacological applications, 1,4,11 a study is reported here on the preparation and characterization of metal complexes containing 4 and divalent metal ions such as Co(II), Ni(II), Cu(II), Zn(II), and Cd(II). In fact 4 is the first disulfonamide for which such a study was done. Here we report the data on these new derivatives, as well as their inhibition properties against two isozymes, CA I and CA II. Mention should be made that CA I inhibition data for the parent ligand, 1,3,4-thiadiazole-2,5- disulfonamide are published here for the first time. Materials and Methods Melting points were recorded on a heating plate microscope and are not corrected. FTIR spectra were obtained on thin films of pure compound, with a Perkin Elmer 1600 instrument, in the range 200 4000 cm"1. Electronic spectra were obtained by the diffuse reflectance technique in MgO as reference, with a Perkin Elmer Lambda 17 apparatus. Conductimetric measurements were done in DMF solutions, at 25C (concentrations of 1 mM of complex) with a Fisher conductimeter. 1n- and 13C-NMR data were obtained in DMSO-d as solvent with a Varian Gemmini 300 spectrometer. Chemical shifts are expressed as values relative to tetramethylsilane as internal standard. […] Thermogravimetric measurements were done in air, at a heating rate of 10C/min., with a Perkin Elmer 3600 thermobalance. Sulfonamide 4 used in the syntheses was prepared as described earlier by us.11 Metal salts, organic reagents used for preparing the ligand 4 and solvents were from Aldrich and were used without additional purification. Bovine CA II and human CA I was from Sigma Chemical Co. Inhibitors were assayed by […] micromethod 12, in the conditions of the E-I (enzyme-inhibitor) technique, at 0C in veronal buffer. IC0 values represent the molarity of inhibitor producing a 50% decrease of CA specific activity for the CO2 hydration reaction. […] The precipitated complexes were filtered and air dried. […] According to our method 6a the coordination compounds of sulfonamides were prepared starting from the sodium salt of the ligand, in aqueous milieu, whereas according to Borras' group they were obtained in the presence of ammonia (or other amines, such as pyridine, ethylenediamine, imidazole, etc), in alcohol as solvent.14 In such cases, the amines are also coordinated to the metal ions, in addition to the sulfonamide ligands. In the present study, we prepared and characterized both types ofderivatives, working with the sodium salt of4, but also with the ligand in the presence of ammonia, in both cases in a 1:1 molar ratio ligand:metal salt. […] Table I: Complexes 5-14 prepared and their elemental analysis data (S stands for the doubly deprotonated species of sulfonamide 4). […] Table II: Spectroscopic, magnetic and conductimetric data for complexes 5-10 as compared to ligands 4. Comp. IR.

Bovine CA II = target: T2, Bovine CA II (Bos taurus, UniProt P00921); assay: CA II inhibition, CO2 hydration, Maren's micromethod (E-I technique); type: biochemical; conditions: 0C, veronal buffer, calculated as for the monomer for complexes
T2 construct: purchased Sigma Chemical Co
T2 sequence (P00921 whole entry): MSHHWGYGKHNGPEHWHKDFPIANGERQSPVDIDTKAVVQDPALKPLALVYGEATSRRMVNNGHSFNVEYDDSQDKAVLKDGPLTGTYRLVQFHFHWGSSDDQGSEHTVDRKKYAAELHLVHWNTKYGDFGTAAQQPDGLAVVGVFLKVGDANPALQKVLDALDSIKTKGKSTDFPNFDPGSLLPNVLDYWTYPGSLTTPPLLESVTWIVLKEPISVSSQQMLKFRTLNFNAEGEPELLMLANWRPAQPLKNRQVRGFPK
Excerpt: as §1

T1 sequence (P00915 whole entry): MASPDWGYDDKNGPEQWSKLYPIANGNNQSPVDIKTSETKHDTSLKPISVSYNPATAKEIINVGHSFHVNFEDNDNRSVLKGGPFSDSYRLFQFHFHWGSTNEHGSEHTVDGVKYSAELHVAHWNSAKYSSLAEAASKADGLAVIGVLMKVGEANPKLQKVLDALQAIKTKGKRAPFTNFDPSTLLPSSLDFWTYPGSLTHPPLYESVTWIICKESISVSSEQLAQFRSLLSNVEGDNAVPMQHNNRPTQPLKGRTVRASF

| Substance | IC50 (human CA I) | IC50 (Bovine CA II) |
| --- | --- | --- |
| [CdS(NH3)2]o [Compound 14] | 0.185 µM | 0.019 µM |
| [CdS(OH2)2] [Compound 9] | 0.18 µM | 0.017 µM |
| [CoS(NH3)2]n [Compound 10] | 0.36 µM | 0.042 µM |
| [CuS(NH3)2] [Compound 12] | 0.185 µM | 0.027 µM |
| [CuS(OH2)2]n [Compound 7] | 0.175 µM | 0.024 µM |
| [NiS(NH3)2], [Compound 11] | 0.44 µM | 0.041 µM |
| [NiS(OH2)2]n [Compound 6] | 0.39 µM | 0.045 µM |
| [ZnS(NH3)2] [Compound 13] | 0.205 µM | 0.022 µM |
| [ZnS] [Compound 8] | 0.21 µM | 0.028 µM |
